Tested on: NBD1/3D
Assay: Aggregation analysis using differential static light scattering (DSLS), NBD1 thermal stability
Format: binding, Human
Settings: ΔTagg versus DMSO control; compound at 100 μM
Method in brief: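 Thermal stabilisation reported as ΔTagg, i.e. aggregation temperature relative to averaged DMSO wells. Tagg came from the inflection of differential static light scattering imaged 25–70 °C while NBD1 (0.2 mg/ml, Tris pH 7.6 buffer containing ATP, MgCl2, DTT, glycerol) was ramped 1 °C/min.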

SMILES | DSLS NBD1/3D Human Stability delta-T (° C.) @ 100 (μM)
CC(O)(c1cccc(CCC(=O)O)c1)c1cnc(-c2cc(Oc3c(F)cc4[nH]ccc4c3S(C)(=O)=O)ccc2F)[nH]1 (centres unmarked) [Example 26, 3-(3-(1-(2-(2-Fluoro-5-((6-fluoro-4-(methylsulfonyl)-1H-indol-5-yl)oxy)phenyl)-1H-imidazol-5-yl)-1-hydroxyethyl)phenyl)propanoic acid] | A (A: T ≥ 10° C.)
CC(CO)(c1cccc(CCC(=O)O)c1)c1c[nH]c(-c2cc(Oc3c(F)c(F)c4[nH]ccc4c3S(C)(=O)=O)ccc2F)n1 (centres unmarked) [Example 69, 3-(3-(2-(2-(5-((6,7-difluoro-4-(methylsulfonyl)-1H-indol-5-yl)oxy)-2-fluorophenyl)-1H-imidazol-5-yl)-1-hydroxypropan-2-yl)phenyl)propanoic acid] | A (A: T ≥ 10° C.)
O=C(O)CCc1cccc(C2(c3cnc(-c4cc(Oc5c(F)cc6[nH]ccc6c5F)ccc4F)[nH]3)CCOC2)c1 (centres unmarked) [Example 150, 3-(3-(3-(2-(5-((4,6-difluoro-1H-indol-5-yl)oxy)-2-fluorophenyl)-1H-imidazol-5-yl)tetrahydrofuran-3-yl)phenyl)propanoic acid] | A (A: T ≥ 10° C.)
CC(O)(c1cccc(CCC(N)=O)c1)c1cnc(-c2cc(Oc3c(F)cc4[nH]ccc4c3S(C)(=O)=O)ccc2F)[nH]1 (centres unmarked) [Example 30, 3-(3-(1-(2-(2-Fluoro-5-((6-fluoro-4-(methylsulfonyl)-1H-indol-5-yl)oxy)phenyl)-1H-imidazol-5-yl)-1-hydroxyethyl)phenyl)propanamide] | B (B: 5-10° C.)
Cc1c(Oc2cccc(-c3ncc(C(C)(O)c4cccc(CCS(C)(=O)=O)c4)[nH]3)c2)c(F)cc2[nH]ccc12 (centres unmarked) [Example 208, 1-(2-(3-((6-fluoro-4-methyl-1H-indol-5-yl)oxy)phenyl)-1H-imidazol-5-yl)-1-(3-(2-(methylsulfonyl)ethyl)phenyl)ethan-1-ol] | C (C: ≤5° C.)
CC(=O)NCc1c(Oc2cccc(-c3ncc(C(O)c4cccc(CCC(=O)O)c4)[nH]3)c2)ccc2[nH]ccc12 (centres unmarked) [Example 262, 3-(3-((2-(3-((4-(Acetamidomethyl)-1H-indol-5-yl)oxy)phenyl)-1H-imidazol-5-yl)(hydroxy)methyl)phenyl)propanoic acid] | A (A: T ≥ 10° C.)
Cc1c(Oc2ccc(F)c(-c3ncc(C4(c5cccc(CCC(=O)O)c5)CC(C)OC(C)C4)[nH]3)c2)c(F)cc2[nH]ccc12 (centres unmarked) [Example 149, 3-(3-(4-(2-(2-fluoro-5-((6-fluoro-4-methyl-1H-indol-5-yl)oxy)phenyl)-1H-imidazol-5-yl)-2,6-dimethyltetrahydro-2H-pyran-4-yl)phenyl)propanoic acid] | B (B: 5-10° C.)
CP(C)(=O)c1c(Oc2cccc(-c3nc(Cc4cccc(CCC(=O)O)c4)cs3)c2)c(F)cc2[nH]ccc12 [Example 92, 3-(3-((2-(3-((4-(Dimethylphosphoryl)-6-fluoro-1H-indol-5-yl)oxy)phenyl)thiazol-4-__yl)methy)phenyl)propanoic acid] | B (B: 5-10° C.)
O=C(O)CCCc1cccc(Cc2nnc(-c3cccc(Oc4ccc5[nH]ccc5c4)c3)[nH]2)c1 [Example 259, 4-(3-((5-(3-((1H-Indol-5-yl)oxy)phenyl)-4H-1,2,4-triazol-3-yl)methyl)phenyl)butanoic acid] | B (B: 5-10° C.)
COC(=O)CCc1cccc(Cc2c[nH]c(-c3cc(Oc4c(F)cc5[nH]ccc5c4F)ccc3F)n2)c1 [Example 101, methyl 3-(3-((2-(5-((4,6-difluoro-1H-indol-5-yl)oxy)-2-fluorophenyl)-1H-imidazol-4-yl)methyl)phenyl)propanoate] | C (C: ≤5° C.)
Cc1c(Oc2ccc(F)c(-c3ncc(C(C)c4cccc([C@H]5C[C@@H]5C(=O)O)c4F)[nH]3)c2)c(F)cc2[nH]ccc12 (single isomer, unassigned) [Example 139G, trans-2-(2-fluoro-3-(1-(2-(2-fluoro-5-((6-fluoro-4-methyl-1H-indol-5-yl)oxy)phenyl)-1H-imidazol-5-yl)ethyl)phenyl)cyclopropane-1-carboxylic acid] | C (C: ≤5° C.)
COC(c1cccc(CCC(=O)O)c1)c1cnc(-c2cc(Oc3c(F)cc4[nH]ccc4c3C)ccc2F)[nH]1 (centres unmarked) [Example 237, 3-(3-((2-(2-fluoro-5-((6-fluoro-4-methyl-1H-indol-5-yl)oxy)phenyl)-1H-imidazol-5-yl)(methoxy)methyl)phenyl) propanoic acid] | B (B: 5-10° C.)
Cc1c(Oc2ccc(F)c(-c3nnc(Cc4cccc(CCC(=O)O)c4)[nH]3)c2)c(F)cc2[nH]ccc12 [Example 238, 3-(3-((5-(2-Fluoro-5-((6-fluoro-4-methyl-1H-indol-5-yl)oxy)phenyl)-4H-1,2,4-triazol-3-yl)methyl)phenyl)propanoic acid] | B (B: 5-10° C.)
CC(C#N)(c1cccc(CCC(=O)O)c1)c1cnc(-c2cc(Oc3c(F)cc4[nH]cnc4c3F)ccc2F)[nH]1 (centres unmarked) [Example 62, 3-(3-(1-cyano-1-(2-(5-((4,6-difluoro-1H-benzo[d]imidazol-5-yl)oxy)-2-fluorophenyl)-1H-imidazol-5-yl)ethyl)phenyl)propanoic acid] | B (B: 5-10° C.)
O=C(O)CCc1cccc(C(O)c2cnc(-c3cccc(Oc4c(F)cc5[nH]ccc5c4-c4nccs4)c3)[nH]2)c1 (centres unmarked) [Example 87, 3-(3-((2-(3-((6-Fluoro-4-(thiazol-2-yl)-1H-indol-5-yl)oxy)phenyl)-1H-imidazol-5-yl)(hydroxy)methyl)phenyl)propanoic acid] | B (B: 5-10° C.)
O=C(O)CCc1cc(F)cc(C(O)c2c[nH]c(-c3cc(Oc4c(F)cc5[nH]ccc5c4F)ccc3F)n2)c1 (centres unmarked) [Example 178, 3-(3-((2-(5-((4,6-difluoro-1H-indol-5-yl)oxy)-2-fluorophenyl)-1H-imidazol-4-yl)(hydroxy)methyl)-5-fluorophenyl)propanoic acid] | B (B: 5-10° C.)
CC(c1ccn(-c2cccc(Oc3c(F)cc4[nH]ccc4c3S(C)(=O)=O)c2)n1)c1cccc(CCC(=O)O)c1F (single isomer, unassigned) [Example 23A, 3-(2-fluoro-3-(1-(1-(3-((6-fluoro-4-(methylsulfonyl)-1H-indol-5-yl)oxy)phenyl)-1H-pyrazol-3-yl)ethyl)phenyl)propanoic acid] | C (C: ≤5° C.)
O=C(O)CCc1cccc(Cc2nnc(-c3cc(Oc4c(F)cc5[nH]ccc5c4F)ccc3F)[nH]2)c1 [Example 240, 3-(3-((5-(5-((4,6-difluoro-1H-indol-5-yl)oxy)-2-fluorophenyl)-4H-1,2,4-triazol-3-yl)methyl)phenyl) propanoic acid] | B (B: 5-10° C.)
C=C(c1cccc(CCC(=O)O)c1)c1cnc(-c2cc(Oc3c(F)cc4[nH]ccc4c3C)ccc2F)[nH]1 [Example 214, 3-(3-(1-(2-(2-Fluoro-5-((6-fluoro-4-methyl-1H-indol-5-yl)oxy)phenyl)-1H-imidazol-5-yl)vinyl)phenyl)propanoic acid] | C (C: ≤5° C.)
Cc1c(Oc2cccc(-c3c(F)cnn3Cc3cccc(CCC(=O)O)c3)c2)c(F)cc2[nH]ccc12 [Example 20, 3-(3-((4-Fluoro-5-(3-((6-fluoro-4-methyl-1H-indol-5-yl)oxy)phenyl)-1H-pyrazol-1-yl)methyl)phenyl)propanoic acid] | C (C: ≤5° C.)
CC(c1cccc(CCC(=O)O)c1)n1ccc(-c2cc(Oc3c(F)cc4[nH]ccc4c3S(C)(=O)=O)ccc2F)n1 (centres unmarked) [Example 38, 3-(3-(1-(3-(2-Fluoro-5-((6-fluoro-4-(methylsulfonyl)-1H-indol-5-yl)oxy)phenyl)-1H-pyrazol-1-yl)ethyl)phenyl)propanoic acid] | B (B: 5-10° C.)
CS(=O)(=O)c1c(Oc2ccc(F)c(-c3nc(Cc4cccc(CCC(=O)O)c4)cs3)c2)c(F)cc2[nH]ccc12 [Example 93, 3-(3-((2-(2-fluoro-5-((6-fluoro-4-(methylsulfonyl)-1H-indol-5-yl)oxy)phenyl)thiazol-4-yl)methyl)phenyl)propanoic acid] | B (B: 5-10° C.)
CC(O)(c1cccc(CC2SC(=O)NC2=O)c1)c1cnc(-c2cccc(Oc3c(F)cc4[nH]ccc4c3F)c2)[nH]1 (centres unmarked) [Example 211, 5-(3-(1-(2-(3-((4,6-Difluoro-1H-indol-5-yl)oxy)phenyl)-1H-imidazol-5-yl)-1-hydroxyethyl)benzyl)thiazolidine-2,4-dione] | B (B: 5-10° C.)
CC(C#N)(c1cccc(CCC(=O)O)c1)c1c[nH]c(-c2cc(Oc3c(F)cc4[nH]ccc4c3F)ccc2F)n1 (centres unmarked) [Example 58, 3-(3-(1-cyano-1-(2-(5-((4,6-difluoro-1H-indol-5-yl)oxy)-2-fluorophenyl)-1H-imidazol-4-yl)ethyl)phenyl)propanoic acid] | B (B: 5-10° C.)
CC(O)(c1cccc(CCC(=O)O)c1)c1cnc(-c2cc(Oc3c(F)cc4[nH]ccc4c3F)ccc2F)[nH]1 (single isomer, unassigned) [Example 216A, 3-(3-(1-(2-(5-((4,6-difluoro-1H-indol-5-yl)oxy)-2-fluorophenyl)-1H-imidazol-5-yl)-1-hydroxyethyl)phenyl) propanoic acid] | B (B: 5-10° C.)
CC(C)(c1cnc(-c2cc(Oc3c(F)c(F)c4[nH]ccc4c3F)ccc2F)[nH]1)c1cccc(CCC(=O)O)c1F [Example 157, 3-(2-fluoro-3-(2-(2-(2-fluoro-5-((4,6,7-trifluoro-1H-indol-5-yl)oxy)phenyl)-1H-imidazol-5-yl)propan-2-yl)phenyl)propanoic acid] | B (B: 5-10° C.)

— patent US20240279220A1, “INDOLE COMPOUNDS AND METHODS OF USE” (Genzyme Corporation, priority 2021, published 2024)
